Assay results from patent US8981094B2, “Piperidine/piperazine derivatives” (Janssen Pharmaceutica N.V., priority 2007, dated 2015).

The compounds below were run against T1, human DGAT1 (Homo sapiens, UniProt O75907) (assay: Inhibition of DGAT1 activity, FlashPlate assay with DGAT1 membrane preparations and substrate micelles). Details: pIC50 = -logIC50, IC50 values expressed in M.
T1 construct: FLAG (N); made in house; host or cells: SF9 insect cells (pFastBac baculovirus); total cell membranes
T1 sequence (O75907 1-488): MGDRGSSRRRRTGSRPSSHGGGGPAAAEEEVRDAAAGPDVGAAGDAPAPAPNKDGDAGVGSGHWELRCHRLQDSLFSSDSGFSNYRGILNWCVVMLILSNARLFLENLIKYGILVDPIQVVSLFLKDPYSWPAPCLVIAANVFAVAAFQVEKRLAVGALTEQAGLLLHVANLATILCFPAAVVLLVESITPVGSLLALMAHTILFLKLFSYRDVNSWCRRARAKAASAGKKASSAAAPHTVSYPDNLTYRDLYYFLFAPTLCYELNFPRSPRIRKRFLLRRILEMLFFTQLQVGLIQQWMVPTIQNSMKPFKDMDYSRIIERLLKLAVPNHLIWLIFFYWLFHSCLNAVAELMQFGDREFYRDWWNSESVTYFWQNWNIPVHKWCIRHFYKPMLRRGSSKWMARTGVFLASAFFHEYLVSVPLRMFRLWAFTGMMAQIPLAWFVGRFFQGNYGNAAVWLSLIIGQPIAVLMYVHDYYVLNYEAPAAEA
Assay type: biochemical
Description: A) Measurement of Inhibition of DGAT1 Activity by the Present Compounds
The inhibiting activity of the present compounds on DGAT1 activity was screened in a single well procedure assay using DGAT1 comprising membrane preparations and DGAT1 substrate comprising micelles and determining formed radio-active triacylglycerol coming in close proximity of a flashplate surface by radio luminescence.
Said assay is described in full detail in WO2006/067071, the content of which is incorporated herein by reference.
By DGAT1 activity is meant the transfer of coenzyme A activated fatty acids to the 3-position of 1,2-diacylglycerols, thus forming a triglyceride molecule, by enzyme DGAT1.
human DGAT1 (NM012079.2) was cloned into the pFastBac vector, containing translation start, a FLAG-tag at the N-terminus as described in literature and a viral Kozak sequence (AAX) preceding the ATG to improve expression in insect cells. Expression was done as described in literature (Cases, S., Smith, S. J., Zheng, Y., Myers H. M., Lear, S. R., Sande, E., Novak, S., Collins, C., Welch, C. B., Lusis, A. J., Erickson, S. K. and Farese, R. V. (1998) Proc. Natl. Acad. Sci. USA 95, 13018-13023.) using SF9 cells.
72 h transfected SF9 cells were collected by centrifugation (13000 rpm-15 min-4° C.) and lysed in 2×500 ml lysisbuffer (0.1M Sucrose, 50 mM KCl, 40 mM KH2PO4, 30 mM EDTA pH 7.2. Cells were homogenized by cell disruptor. After centrifugation 1380 rpm-15 min-4° C. (SN discarded), pellet was resuspended in 500 ml lysisbuffer and total cell membranes collected by ultracentrifugation at 34000 rpm(100 000 g) for 60 min (4° C.). The collected membranes were resuspended in lysis buffer, divided in aliquots and stored with 10% glycerol at −80° C. until use.
Add 1 ml dioleoyl-sn-glycerol (10 mg/ml) to 10 ml of L-α-phosphatidylcholine (1 mg/ml) and 10 ml of L-α-phosphatidyl-L-serine (1 mg/ml) in a thick glass recipient. Evaporate under nitrogen and put on ice for 15 minutes. Reconstitute in 10 ml Tris/HCl (10 mM, pH 7.4) by sonication on ice. The sonification process consists of sonification cycles of 10 seconds in the sonification bath followed by 10 seconds cool down on ice and repeating this sonification cycle till a homogeneous solution is obtained (takes about 15 minutes). The thus obtained micelles are stored at −20° C. till later use and contain DAG at a final concentration of 1.61 mM.
c) Substrate mix (for 1 384 well plate=3840 μl) • 612 μl micelles stock (51 μM final) • 16.6 μl oleoylCoA 9.7 mM • 23 μl [^3H]-oleoylCoA (49 Ci/mmol, 500 μCi/ml) • 3188.4 μl Tris pH 7.4, 10 mM
d) Enzyme mix (for 1 384 well plate=3520 μl) (5 μg/ml) • Add 11.73 μl of DGAT membrane stock (1500 μg/ml stock) to 3508 μl assay buffer.
e) Stop mix (for 1 384 well plate=7.68 ml) (250 mM) • Add 384 μl of N-ethylmaleimide (5M) to 3.456 ml DMSO 100%, and further dilute 3.84 ml of said solution with 3.84 ml DMSO 10%.
DGAT activity in membrane preparations was assayed in 50 mM Tris-HCl (pH 7.4), 150 mM MgCl2, 1 mM EDTA and 0.2% BSA, containing 50 μM DAG, 32 μg/ml PC/PS and 8.4 μM [^3H]-oleoylCoA (at a specific activity of 30 nCi/well) in a final volume of 50 μl in 384-well format using the red shifted Basic Image FlashPlate™ (Perkin Elmer Cat.No. SMP400).
In detail, 10 μl enzyme mix and 10 μl substrate mix were added to 30 μl of assay buffer, optionally in the presence of 1 μl DMSO (blank and controls) or 1 μl of the compound to be tested. This reaction mixture was incubated for 120 minutes at 37° C. and the enzymatic reaction stopped by adding 20 μl of the stop mix. The plates were sealed and the vesicles allowed to settle overnight at room temperature. Plates were centrifuged for 5 minutes at 1500 rpm and measured in Leadseeker. […]

Structure (SMILES) | IC50 [nM]
CC(C)(C)OC(=O)N1CCCC1CC(=O)Nc1ccc(C2CCN(C(=O)Nc3c(Cl)cccc3Cl)CC2)cc1 (stereo not shown) [Compound 39] | 17
O=C(CNCc1ccco1)Nc1ccc(C2CCN(C(=O)Nc3c(Cl)cccc3Cl)CC2)cc1 [Compound 119] | 389
O=C(CN1CCC(F)(F)CC1)Nc1ccc(C2CCN(C(=O)Nc3c(Cl)cccc3Cl)CC2)cc1 [Compound 107] | 182
CCOC(=O)c1ccc(N2CCCN(CC(=O)Nc3ccc(C4CCN(C(=O)Nc5c(Cl)cccc5Cl)CC4)cc3)CC2)cc1 [Compound 101] | 138
O=C(Cc1ccsc1)Nc1ccc(C2CCN(C(=O)Nc3c(Cl)cccc3Cl)CC2)cc1 [Compound 132] | 44.7
O=C(NCC12CC3CC(CC(C3)C1)C2)c1ccc(N2CCN(C(=O)Nc3c(Cl)cc(CN4CCCC4)cc3Cl)CC2)cc1 [Compound 243] | 129
Cc1cccc(NCC(=O)Nc2ccc(C3CCN(C(=O)Nc4c(Cl)cccc4Cl)CC3)cc2)c1 [Compound 97] | 49
Cc1ccc(CC(=O)Nc2ccc(N3CCN(S(=O)(=O)c4ccccc4C)CC3)cc2)c(C)c1 [Compound 17] | 2240
CC1CN(CC(=O)Nc2ccc(C3CCN(C(=O)Nc4c(Cl)cccc4Cl)CC3)cc2)CC(C)O1 (stereo not shown) [Compound 98] | 50.1
C#CCCC(=O)Nc1ccc(C2CCN(C(=O)Nc3c(Cl)cccc3Cl)CC2)cc1 [Compound 129] | 245
COc1ccc(CC(=O)Nc2ccc(N3CCN(C(=O)C(O)c4ccc(CN5CCCC5)cc4Cl)CC3)cc2)cc1 (stereo not shown) [Compound 352] | 339
C#CCC(NC(=O)OC(C)(C)C)C(=O)Nc1ccc(C2CCN(C(=O)Nc3c(Cl)cccc3Cl)CC2)cc1 (stereo not shown) [Compound 220] | 19.1
CCC(C(=O)Nc1ccc(N2CCN(C(=O)Cc3ccccc3C)CC2)cc1)c1ccccc1 (stereo not shown) [Compound 336] | 692
CC(C)C(NC(=O)OC(C)(C)C)C(=O)Nc1ccc(C2CCN(C(=O)Nc3c(Cl)cccc3Cl)CC2)cc1 (stereo not shown) [Compound 208] | 191
CC(C)CC(NC(=O)OC(C)(C)C)C(=O)Nc1ccc(C2CCN(C(=O)Nc3c(Cl)cccc3Cl)CC2)cc1 (single isomer, unassigned) [Compound 33] | 35.5
CC(C)(C)OC(=O)NC1(C(=O)Nc2ccc(C3CCN(C(=O)Nc4c(Cl)cccc4Cl)CC3)cc2)CCCC1 [Compound 216] | 34.7
O=C(CNCc1ccc(F)cc1)Nc1ccc(C2CCN(C(=O)Nc3c(Cl)cccc3Cl)CC2)cc1 [Compound 118] | 347
O=C(NCc1cccc(N2CCCC2)c1)c1ccc(N2CCN(C(=O)Nc3c(Cl)cc(CN4CCCC4)cc3Cl)CC2)cc1 [Compound 224] | 8.32
N#CCCNCC(=O)Nc1ccc(C2CCN(C(=O)Nc3c(Cl)cccc3Cl)CC2)cc1 [Compound 121] | 3800
CC(C)(C)OC(=O)NCC(=O)Nc1ccc(C2CCN(C(=O)Nc3c(Cl)cccc3Cl)CC2)cc1 [Compound 212] | 115
COC(=O)CCCC(=O)Nc1ccc(C2CCN(C(=O)Nc3c(Cl)cccc3Cl)CC2)cc1 [Compound 126] | 67.6
O=C(CC1CCCN1)Nc1ccc(C2CCN(C(=O)Nc3c(Cl)cccc3Cl)CC2)cc1 (stereo not shown) [Compound 149] | 7240
CCCCCCCN(C)CC(=O)Nc1ccc(C2CCN(C(=O)Nc3c(Cl)cccc3Cl)CC2)cc1 [Compound 99] | 25.7
Cc1cc(C)cc(N2CCN(CC(=O)Nc3ccc(C4CCN(C(=O)Nc5c(Cl)cccc5Cl)CC4)cc3)CC2)c1 [Compound 105] | 170
CC(NC(=O)OC(C)(C)C)C(=O)Nc1ccc(C2CCN(C(=O)Nc3c(Cl)cccc3Cl)CC2)cc1 (stereo not shown) [Compound 206] | 269
O=C(NCc1cc(F)cc(F)c1)c1ccc(N2CCN(C(=O)Cc3c(Cl)cccc3Cl)CC2)cc1 [Compound 252] | 234

Continued, values first:

IC50 [nM] | Structure (SMILES)
55 | COC(=O)CCCC(=O)Nc1ccc(N2CCN(C(=O)Nc3c(Cl)cccc3Cl)CC2)cc1 [Compound 145]
5620 | COc1ccc(C)cc1NC(=O)N1CCN(c2ccc(NC(=O)CCCc3ccccc3)cc2)CC1 [Compound 76]
29.5 | O=C(CCCc1ccccc1)Nc1ccc(N2CCN(C(=O)Nc3c(Cl)cc(OC(F)(F)F)cc3Cl)CC2)cc1 [Compound 13]
5010 | CC(C(=O)N1CCN(c2ccc(NC(=O)CCCc3ccccc3)cc2)CC1)c1ccc(O)cc1 (stereo not shown) [Compound 347]
4.57 | O=C(CC(=O)OCc1ccccc1)Nc1ccc(N2CCN(C(=O)Nc3c(Cl)cccc3Cl)CC2)cc1 [Compound 277]
31.6 | COc1ccc(CC(=O)Nc2ccc(N3CCN(C(=O)Oc4c(Cl)cccc4Cl)CC3)cc2)cc1 [Compound 308]
1100 | CCCCCCC(=O)Nc1ccc(N2CCN(C(=O)N(C)c3c(Cl)cccc3Cl)CC2)cc1 [Compound 10]
123 | O=C(CCCc1ccccn1)Nc1ccc(N2CCN(C(=O)Nc3c(Cl)cccc3Cl)CC2)cc1 [Compound 195]
7.76 | CC(C)(C)OC(=O)CC(=O)Nc1ccc(N2CCN(C(=O)Nc3c(Cl)cccc3Cl)CC2)cc1 [Compound 282]
21.4 | O=C(CCCc1ccccc1)Nc1ccc(N2CCN(C(=O)Nc3c(Cl)cc(C(=O)NCc4ccncc4)cc3Cl)CC2)cc1 [Compound 303]
37.2 | O=C(CCCc1ccccc1)Nc1ccc(N2CCN(C(=O)Nc3c(Cl)cc(C(=O)NCCN4CCOCC4)cc3Cl)CC2)cc1 [Compound 310]
10.7 | CC(NCCCO)c1cc(Cl)c(NC(=O)N2CCN(c3ccc(NC(=O)CCCc4ccccc4)cc3)CC2)c(Cl)c1 (stereo not shown) [Compound 57]
603 | COc1ccc(NC(=O)N2CCN(c3ccc(NC(=O)CCCc4ccccc4)cc3)CC2)c(OC)c1 [Compound 75]
10.5 | CN1CCN(C(=O)c2cc(Cl)c(NC(=O)N3CCN(c4ccc(NC(=O)CCCc5ccccc5)cc4)CC3)c(Cl)c2)CC1 [Compound 290]
115 | O=C(CCCc1ccccc1)Nc1ccc(N2CCN(C(=O)C(O)c3ccc(F)cc3F)CC2)cc1 (stereo not shown) [Compound 325]
38 | O=C(CCc1ccco1)Nc1ccc(C2CCN(C(=O)Nc3c(Cl)cccc3Cl)CC2)cc1 [Compound 133]
33.9 | O=C(CCCc1ccccc1)Nc1ccc(N2CCN(C(=O)Nc3c(Cl)cc(C(=O)O)cc3Cl)CC2)cc1 [Compound 27]
18.2 | O=C(CCc1ccco1)Nc1ccc(N2CCN(C(=O)Nc3c(Cl)cccc3Cl)CC2)cc1 [Compound 143]
35.5 | O=C(CCCc1ccccc1)Nc1ccc(N2CCN(C(=O)Cc3c(Cl)cccc3Cl)CC2)cc1 [Compound 52]
4.57 | COc1ccc(CC(=O)Nc2ccc(N3CCN(C(=O)Nc4c(Cl)cc(OC)cc4Cl)CC3)cc2)cc1 [Compound 15]
